Read-outs that look alike come from different tables or passages of the source. Ends that are not written are not given here. Peptide text beside a SMILES is read from it.
Tests used:
HIV-1 = conditions: AIDS patients, clinical trials; cited from earlier work
[1] = test system: HCV pseudotype (HIV core proteins, HCV E1 and E2 of strain H77); conditions: for Percent inhibition: 25 μM; for Inhibition of HCV pseudotype infectivity (in words): summary of Tables 7 and 8
[2] = HCV J4 1b E2 peptides at ~25 μM, Table 8, controls as in Table 7
[3] = HCV H77 1a E2 peptides at ~25 μM, Table 7, virus alone 448,123

Molecule	HIV-1 load (HIV-1)	Percent inhibition [1]	Luciferase units [1, 2]	Luciferase units [1, 3]	Inhibition of HCV pseudotype infectivity (in words) [1]
enfuvirtide	substantially reduce				
CC[C@H](C)[C@H](NC(=O)[C@H](CC(N)=O)NC(=O)[C@H](CS)NC(=O)[C@@H]1CCCN1)C(=O)NCC(=O)NCC(=O)N[C@H](C(=O)NCC(=O)N[C@@H](CC(N)=O)C(=O)N[C@@H](CCCNC(=N)N)C(=O)N[C@H](C(=O)N[C@@H](CC(C)C)C(=O)N[C@H](C(=O)N[C@@H](CS)C(=O)N1CCC[C@H]1C(=O)N[C@H](C(=O)N[C@@H](CC(=O)O)C(=O)N[C@@H](CS)C(=O)O)[C@@H](C)O)[C@@H](C)CC)[C@@H](C)O)C(C)C [compound 102, PCNIGGVGNRTLICPTDC] (H-PCNIGGVGNRTLICPTDC-OH; N-terminus and C-terminus assumed)		15.8%	377,216 luciferase units (lumens)		
HRLEAACNWTRGERCDLE [compound 36]		−19.5%		535,016 luciferase units (lumens)	
VGLLTPGAKQNIQLINTN [peptide 4, VGLLTPGAKQNIQLINTN]		97.6%		10,620 luciferase units (lumens)	inhibitory
TGFFAALFYAHKFNSSGC [compound 51, TGFFAALFYAHKFNSSGC]		47.1%	237,086 luciferase units (lumens)		
RCGSGPWITPRCMVDYPY [compound 30]		−46.2%		655,040 luciferase units (lumens)	
ARVCSCLWMMLLISQAEA [compound 49]		31.4%		307,310 luciferase units (lumens)	
TGLIHLHQNIVDVQYLYG [compound 43, TGLIHLHQNIVDVQYLYG]		92.8%		32,283 luciferase units (lumens)	inhibitory
AKQNIQLINTNGSWHINS [peptide 5, AKQNIQLINTNGSWHINS]		89.3%		48,000 luciferase units (lumens)	inhibitory
QNIVDVQYLYGVGSSIAS [compound 44, QNIVDVQYLYGVGSSIAS]		79.6%		91,266 luciferase units (lumens)	inhibitory
CC[C@H](C)[C@H](NC(=O)[C@H](CCC(N)=O)NC(=O)[C@H](Cc1c[nH]c2ccccc12)NC(=O)[C@H](CCC(=O)O)NC(=O)[C@@H](NC(=O)[C@@H](NC(=O)[C@H](CO)NC(=O)[C@H](CC(C)C)NC(=O)[C@H](CC(C)C)NC(=O)[C@H](CC(C)C)NC(=O)[C@@H]1CCCN1C(=O)[C@H](CO)NC(=O)[C@H](CC(C)C)NC(=O)[C@H](CCC(=O)O)NC(=O)[C@H](CO)NC(=O)[C@@H](N)CCCNC(=N)N)[C@@H](C)O)[C@@H](C)O)C(=O)N[C@@H](CC(C)C)C(=O)N1CCC[C@H]1C(=O)O [compound 114, RSELSPLLLSTTEWQILP]		39.7%	270,190 luciferase units (lumens)		
CC[C@H](C)[C@H](NC(=O)[C@@H](NC(=O)[C@H](CC(C)C)NC(=O)[C@H](CC(N)=O)NC(=O)[C@H](CCC(=O)O)NC(=O)[C@H](CC(C)C)NC(=O)[C@H](C)NC(=O)[C@H](C)NC(=O)[C@H](CCC(=O)O)NC(=O)[C@H](C)NC(=O)[C@H](CCC(N)=O)NC(=O)[C@H](CO)NC(=O)[C@@H](NC(=O)[C@H](CC(C)C)NC(=O)[C@H](CC(C)C)NC(=O)[C@H](CCSC)NC(=O)[C@H](CCSC)NC(=O)[C@@H](N)Cc1c[nH]c2ccccc12)[C@@H](C)CC)C(C)C)C(=O)O [compound 50, WMMLLISQAEAALENLVI]		87.9%		58,790 luciferase units (lumens)	
NWTRGERCDLEDRDRSEL [compound 37, NWTRGERCDLEDRDRSEL]		−30.7%		585,553 luciferase units (lumens)	
LFLLLADARVCACLWMML [compound 120]		−3.4%	463,243 luciferase units (lumens)		
